Data reported in patent publication US5494895A, “Scorpion peptide margatoxin with immunosuppressant activity” (Merck & Co., Inc., priority 1993, dated 1996).
Peptide text beside a SMILES is read from it.

Tests used:
[1] = biological target: T1, Kv 1.3 in plasma membranes from Jurkat cells (Homo sapiens, UniProt P22001); assay: [125I]ChTX binding to plasma membranes from Jurkat cells
T1 construct: plasma membranes prepared from Jurkat cells, a human T-cell leukemia line; endogenous in cells; host or cells: Jurkat cells (plasma membranes)
T1 sequence (P22001 whole entry): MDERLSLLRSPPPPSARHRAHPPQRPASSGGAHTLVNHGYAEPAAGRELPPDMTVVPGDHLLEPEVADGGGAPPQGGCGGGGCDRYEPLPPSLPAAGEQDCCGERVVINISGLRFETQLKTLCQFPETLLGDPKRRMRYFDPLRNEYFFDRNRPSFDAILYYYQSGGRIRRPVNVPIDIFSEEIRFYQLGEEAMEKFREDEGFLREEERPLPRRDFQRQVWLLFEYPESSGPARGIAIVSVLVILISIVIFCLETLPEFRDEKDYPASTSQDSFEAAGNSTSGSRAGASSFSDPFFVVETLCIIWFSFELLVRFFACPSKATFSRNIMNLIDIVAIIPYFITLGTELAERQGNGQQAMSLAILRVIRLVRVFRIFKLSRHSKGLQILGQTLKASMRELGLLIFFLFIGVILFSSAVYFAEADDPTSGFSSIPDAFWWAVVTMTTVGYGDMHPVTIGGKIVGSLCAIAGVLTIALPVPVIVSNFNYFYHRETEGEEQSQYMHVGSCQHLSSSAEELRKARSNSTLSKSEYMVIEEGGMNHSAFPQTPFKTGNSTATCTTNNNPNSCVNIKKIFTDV
Method: In addition to being tested for competition for [^125 I]ChTX binding to rat brain and bovine aortic smooth muscle, MgTX was evaluated for its effects on [^125 I]ChTX binding to human T lymphocytes and to plasma membranes prepared from Jurkat cells, a human T-cell leukemia line. MgTX competition for [^125 I]ChTX binding to human T cells was performed as described by Lin, et al., J. Exp. Med. 177, 637-645, 1993. Binding experiments using monocyte-depleted, E-rosetted human T cells were carried out in isotonic sucrose with 5 mM KCl, 5 mM NaCl, 6 mM glucose and 10 mM HEPES, pH 8.0 until equilibrium was achieved. The procedure for binding to plasma membranes from Jurkat Cells is similar except that the binding solution was 3 mM KCl, 7 mM NaCl, 10 mM HEPES, pH 8.0. Free ligand was removed from bound by filtration through Whatman GF/C glass fiber filters (pretreated with 0.5% polyethylenimine). […] Hill coefficients were 2 in both cases.

Kv 1 (rat Kv 1.5) = biological target: T2, Kv 1 (rat Kv 1.5) (Rattus norvegicus, UniProt P19024); assay: Two-electrode voltage clamp of Xenopus oocytes expressing Kv 1 (Kv 1.5); assay type: cell-based; conditions: 200 nM MgTX
T2 construct: expressed in transfected cells; host or cells: Xenopus oocytes injected with RNA transcribed in vitro from the cDNA clone
T2 sequence (P19024 whole entry): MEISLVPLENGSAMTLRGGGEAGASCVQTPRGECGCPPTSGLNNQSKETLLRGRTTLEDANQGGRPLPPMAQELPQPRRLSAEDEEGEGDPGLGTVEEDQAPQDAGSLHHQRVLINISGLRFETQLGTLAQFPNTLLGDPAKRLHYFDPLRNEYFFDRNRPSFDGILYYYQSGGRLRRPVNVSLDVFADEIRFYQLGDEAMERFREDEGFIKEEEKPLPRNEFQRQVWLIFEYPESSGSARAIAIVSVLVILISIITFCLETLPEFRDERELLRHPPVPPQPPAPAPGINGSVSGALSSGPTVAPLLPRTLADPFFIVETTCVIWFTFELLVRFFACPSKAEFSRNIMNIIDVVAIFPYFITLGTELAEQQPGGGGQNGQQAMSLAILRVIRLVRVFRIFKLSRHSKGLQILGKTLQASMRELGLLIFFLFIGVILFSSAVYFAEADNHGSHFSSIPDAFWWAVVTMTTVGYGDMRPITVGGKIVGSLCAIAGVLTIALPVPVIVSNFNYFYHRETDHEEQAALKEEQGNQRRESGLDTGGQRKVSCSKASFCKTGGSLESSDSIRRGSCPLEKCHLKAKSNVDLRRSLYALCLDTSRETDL
Method: (§1) Ionic currents were also recorded from Xenopus oocytes that had been injected with RNA transcribed in vitro from one or another of the following K^+ channel cDNA clones. Kv 1 (rat Kv 1.5), rat or human Kv 3 (rat Kv 1.3; human Kv 1.3), Kv 4 (rat Kv 3.1 ), rat ISK, Kv 2 (rat Kv 1.6) or Drosophila Shaker-H4. The names of the clones are listed as originally published, with the appropriate parenthetical designation according to the unified gene nomenclature proposed by Chandy. Shaker-H4 is a splice variant from the original Drosophila Shaker K^+ channel gene. Kv 1.3 is the ChTX-sensitive delayed rectifier current found in rat and human T lymphocytes (data from rat and human clones were indistinguishable and were combined) and it is a member of the Shaker family. Kv 1.5 is a channel cloned from rat (Swanson et al., Neuron, 4, 929, 1990) and is another member of the Shaker family. The Kv 1.5 transcript has been detected in pancreatic β cells as described in Philipson, et al., Proc. Natl. Acad. Sci. U.S.A. 88, 53, 1991. […] The ISK transcript has been detected in lymphocytes (Attali et al., J. Biol. Chem,. 267, 8650, 1992), but no evidence of the IKs current has been found in those cells.
(§2) Methods for oocyte isolation and micro-injection were previously described in Goldin, Meth. […] Currents expressed in oocytes were measured using a DAGAN model CA-1 two-electrode voltage clamp. […]

Kv 3.1 = biological target: T3, Kv 3.1 (Rattus norvegicus, UniProt P25122); assay: Two-electrode voltage clamp of Xenopus oocytes expressing Kv 4 (Kv 3.1); assay type: cell-based; conditions: 200 nM MgTX
T3 construct: expressed in transfected cells; host or cells: Xenopus oocytes injected with RNA transcribed in vitro from the cDNA clone
T3 sequence (P25122 1-585): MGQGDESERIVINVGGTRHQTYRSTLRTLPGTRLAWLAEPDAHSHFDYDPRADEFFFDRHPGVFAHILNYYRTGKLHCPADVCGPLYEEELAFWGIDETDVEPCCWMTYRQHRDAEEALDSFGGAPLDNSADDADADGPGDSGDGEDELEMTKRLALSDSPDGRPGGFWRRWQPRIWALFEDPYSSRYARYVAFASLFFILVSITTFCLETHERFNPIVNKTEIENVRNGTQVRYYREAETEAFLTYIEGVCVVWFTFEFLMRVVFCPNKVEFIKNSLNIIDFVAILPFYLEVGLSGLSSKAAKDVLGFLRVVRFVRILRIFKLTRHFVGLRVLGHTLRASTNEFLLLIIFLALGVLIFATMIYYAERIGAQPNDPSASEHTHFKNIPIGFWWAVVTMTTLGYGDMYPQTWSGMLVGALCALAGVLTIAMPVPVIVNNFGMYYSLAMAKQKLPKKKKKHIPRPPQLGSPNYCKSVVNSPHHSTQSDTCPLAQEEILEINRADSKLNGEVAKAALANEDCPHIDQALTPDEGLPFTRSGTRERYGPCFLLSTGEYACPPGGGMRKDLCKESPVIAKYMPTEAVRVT
Method: as §1, §2

Kv 1.6 = biological target: T4, Kv 1.6 (Rattus norvegicus, UniProt P17659); assay: Two-electrode voltage clamp of Xenopus oocytes expressing Kv 2 (Kv 1.6); assay type: cell-based; conditions: read-out: concentration at which Kv 1.6 was half blocked
T4 construct: expressed in transfected cells; host or cells: Xenopus oocytes injected with RNA transcribed in vitro from the cDNA clone
T4 sequence (P17659 whole entry): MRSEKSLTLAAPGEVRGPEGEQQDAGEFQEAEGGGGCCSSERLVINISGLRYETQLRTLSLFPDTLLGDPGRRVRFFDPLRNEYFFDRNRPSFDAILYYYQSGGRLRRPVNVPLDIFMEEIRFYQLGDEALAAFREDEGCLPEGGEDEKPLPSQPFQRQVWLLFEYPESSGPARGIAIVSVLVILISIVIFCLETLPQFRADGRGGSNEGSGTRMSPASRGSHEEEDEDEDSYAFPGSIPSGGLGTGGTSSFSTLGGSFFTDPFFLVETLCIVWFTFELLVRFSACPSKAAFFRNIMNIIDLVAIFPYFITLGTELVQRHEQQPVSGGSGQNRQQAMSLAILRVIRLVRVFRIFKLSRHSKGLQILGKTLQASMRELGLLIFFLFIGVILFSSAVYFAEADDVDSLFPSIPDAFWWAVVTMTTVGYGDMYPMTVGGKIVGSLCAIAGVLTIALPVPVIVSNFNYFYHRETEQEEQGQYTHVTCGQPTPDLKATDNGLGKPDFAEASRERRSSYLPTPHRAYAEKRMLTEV
Method: as §1, §2

[2] = test system: three different ChTX-sensitive, Ca2+-activated K+ channels of lymphocytes; conditions: even at 100 nM; cited from earlier work
human T-lymphocytes = conditions: cited from earlier work
human T cells = conditions: cited from earlier work

Structure (SMILES): CC[C@H](C)[C@H](NC(=O)[C@@H](N)[C@@H](C)O)C(=O)N[C@H](C(=O)N[C@@H](CC(N)=O)C(=O)N[C@H](C(=O)N[C@@H](CCCCN)C(=O)N[C@H]1CSSC[C@@H]2NC(=O)[C@H](CCCCN)NC(=O)[C@H](C)NC(=O)CNC(=O)[C@H](C)NC(=O)[C@H](CO)NC(=O)[C@H](CCC(N)=O)NC(=O)CNC(=O)[C@H](Cc3ccccc3)NC(=O)[C@H](CCC(N)=O)NC(=O)[C@H](C)NC(=O)[C@H](CCCCN)NC(=O)[C@@H]3CSSC[C@@H](C(=O)N[C@@H](Cc4ccc(O)cc4)C(=O)N4CCC[C@H]4C(=O)N[C@@H](Cc4c[nH]cn4)C(=O)O)NC(=O)[C@H](CCCCN)NC(=O)[C@H](CSSC[C@H](NC(=O)[C@H](CCC(N)=O)NC(=O)[C@H](CCCCN)NC(=O)[C@@H]4CCCN4C(=O)[C@H](CO)NC(=O)[C@H]([C@@H](C)O)NC1=O)C(=O)N[C@@H](CC(C)C)C(=O)N1CCC[C@H]1C(=O)N1CCC[C@H]1C(=O)N3)NC(=O)[C@H](CCCCN)NC(=O)CNC(=O)[C@H](CC(N)=O)NC(=O)[C@H](CCSC)NC2=O)C(C)C)[C@@H](C)CC [MgTX, Margatoxin] (HELM PEPTIDE1{T.I.I.N.V.K.C.T.S.P.K.Q.C.L.P.P.C.K.A.Q.F.G.Q.S.A.G.A.K.C.M.N.G.K.C.K.C.Y.P.H}$PEPTIDE1,PEPTIDE1,7:R3-29:R3|PEPTIDE1,PEPTIDE1,13:R3-34:R3|PEPTIDE1,PEPTIDE1,17:R3-36:R3$$$V2.0; N-terminus and C-terminus assumed; bridges inferred)
- Hill coefficient [1]: 2
- IC50 ([1]; pH 8.0, read-out: IC50 for inhibition of [125I]ChTX binding): 2.7 pM
- sensitivity of cloned channel Kv 5 to block (Kv 1 (rat Kv 1.5)): completely insensitive
- sensitivity of cloned channel Kv 3.1 to block (Kv 3.1): completely insensitive
- IC50 (Kv 1.6): 5 nM
- effect on three ChTX-sensitive Ca2+-activated K+ channels of lymphocytes [2]: no effect
- effect on interleukin 2 production (human T-lymphocytes): inhibits interleukin 2 production
- effect on activation and proliferation mediated by Ca2+-dependent pathways (human T cells): prevent activation and proliferation
- effect on membrane potential of human T cells (human T cells): depolarize human T cells
